Experimental data published in ChEMBL document CHEMBL1201862, “PubChem BioAssay data set” (2004).
Active and inactive are the calls of the source.

Columns and labels:
[1] = test system: Streptococcus sp. 'group A'; assay: Streptococcus pyogenes SK(-)GAS viability under kanamycin – luminescence, BacTiterGlo, confirmation, counter-screen for streptokinase expression inhibitor project, dose response (AID 1900); type: functional, organism-based
[2] = molecular target: Multidrug resistance protein CDR1 (Candida albicans, UniProt P43071); assay: inhibition of Nile Red efflux via Candida CDR1 – S. cerevisiae AD1-8u, singleplex, Cherry Pick1 hits, dose response (AID 588606); type: functional
Streptokinase A = molecular target: T1, Streptokinase A (Streptococcus pyogenes serotype M1, UniProt P10520); assay: viability-normalized secreted streptokinase activity reduction – plasminogen activation absorbance, OD405, dose response (AID 1914); type: functional, Streptococcus pyogenes M1 GAS;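 also: secreted streptokinase activity via plasminogen activation per viability signal from cell pellet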
T1 sequence (P10520 whole entry): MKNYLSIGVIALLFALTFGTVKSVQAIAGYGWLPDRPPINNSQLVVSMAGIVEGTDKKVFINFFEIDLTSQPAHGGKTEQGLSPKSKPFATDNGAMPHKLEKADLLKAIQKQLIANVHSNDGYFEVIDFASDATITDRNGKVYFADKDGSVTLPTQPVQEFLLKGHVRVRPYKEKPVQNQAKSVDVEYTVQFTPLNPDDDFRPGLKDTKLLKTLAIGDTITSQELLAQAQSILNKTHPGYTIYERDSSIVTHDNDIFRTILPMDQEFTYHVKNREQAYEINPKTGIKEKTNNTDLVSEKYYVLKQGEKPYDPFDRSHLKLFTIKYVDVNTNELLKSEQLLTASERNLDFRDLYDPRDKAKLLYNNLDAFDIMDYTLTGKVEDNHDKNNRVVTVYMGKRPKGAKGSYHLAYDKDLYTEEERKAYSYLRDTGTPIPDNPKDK

[3] = Luminescence Cell-Based Dose Confirmation HTS to Identify Inhibitors of Polyadenylation.; type: functional
[4] = molecular target: Multidrug resistance protein CDR2 (Candida albicans (strain SC5314 / ATCC MYA-2876) (Yeast), UniProt P78595); assay: inhibition of Nile Red efflux via Candida CDR2 – S. cerevisiae AD1-8u, singleplex, Cherry Pick1 hits, dose response (AID 588604); type: functional
[5] = microbe, parasite or virus in culture; type: functional; details: Mycobacterium tuberculosis
Streptococcus = assay: GAS UMAA2166 growth inhibition – luminescence, BacTiterGlo, counter-screen for streptokinase expression inhibitor project, dose response (AID 1915); type: functional, organism-based;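 also: potency for reduction of bacterial viability or growth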
[6] = molecular target: T2, High affinity choline transporter 1 (Homo sapiens, UniProt Q9GZV3); assay: human choline transporter blockers, potency – cell-based, 5-point CRC, membrane potential dye, dose response (AID 504840); type: functional
T2 sequence (Q9GZV3 whole entry): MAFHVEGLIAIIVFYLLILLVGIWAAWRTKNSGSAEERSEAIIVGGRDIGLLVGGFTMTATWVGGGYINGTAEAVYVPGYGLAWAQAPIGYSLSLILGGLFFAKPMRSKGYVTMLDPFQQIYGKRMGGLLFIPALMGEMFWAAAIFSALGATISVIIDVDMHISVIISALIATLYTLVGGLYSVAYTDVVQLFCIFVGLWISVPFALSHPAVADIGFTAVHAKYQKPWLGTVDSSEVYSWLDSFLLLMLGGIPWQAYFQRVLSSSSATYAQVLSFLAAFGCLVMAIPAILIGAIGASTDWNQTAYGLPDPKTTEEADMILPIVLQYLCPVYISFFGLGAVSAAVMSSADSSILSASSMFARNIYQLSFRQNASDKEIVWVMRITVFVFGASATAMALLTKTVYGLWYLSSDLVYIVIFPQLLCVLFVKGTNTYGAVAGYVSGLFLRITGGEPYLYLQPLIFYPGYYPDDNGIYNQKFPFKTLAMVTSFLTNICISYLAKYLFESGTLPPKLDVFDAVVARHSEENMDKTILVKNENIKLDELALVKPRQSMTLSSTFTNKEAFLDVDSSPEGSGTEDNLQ

[7] = molecular target: T2, High affinity choline transporter 1; assay: human choline transporter blockers, potency – cell-based, 10-point CRC, membrane potential dye, dose response (AID 588401); type: functional;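 also: membrane potential dye fluorescence of choline-evoked depolarization via CHT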

Sequence of Multidrug resistance protein CDR2 (P78595 whole entry): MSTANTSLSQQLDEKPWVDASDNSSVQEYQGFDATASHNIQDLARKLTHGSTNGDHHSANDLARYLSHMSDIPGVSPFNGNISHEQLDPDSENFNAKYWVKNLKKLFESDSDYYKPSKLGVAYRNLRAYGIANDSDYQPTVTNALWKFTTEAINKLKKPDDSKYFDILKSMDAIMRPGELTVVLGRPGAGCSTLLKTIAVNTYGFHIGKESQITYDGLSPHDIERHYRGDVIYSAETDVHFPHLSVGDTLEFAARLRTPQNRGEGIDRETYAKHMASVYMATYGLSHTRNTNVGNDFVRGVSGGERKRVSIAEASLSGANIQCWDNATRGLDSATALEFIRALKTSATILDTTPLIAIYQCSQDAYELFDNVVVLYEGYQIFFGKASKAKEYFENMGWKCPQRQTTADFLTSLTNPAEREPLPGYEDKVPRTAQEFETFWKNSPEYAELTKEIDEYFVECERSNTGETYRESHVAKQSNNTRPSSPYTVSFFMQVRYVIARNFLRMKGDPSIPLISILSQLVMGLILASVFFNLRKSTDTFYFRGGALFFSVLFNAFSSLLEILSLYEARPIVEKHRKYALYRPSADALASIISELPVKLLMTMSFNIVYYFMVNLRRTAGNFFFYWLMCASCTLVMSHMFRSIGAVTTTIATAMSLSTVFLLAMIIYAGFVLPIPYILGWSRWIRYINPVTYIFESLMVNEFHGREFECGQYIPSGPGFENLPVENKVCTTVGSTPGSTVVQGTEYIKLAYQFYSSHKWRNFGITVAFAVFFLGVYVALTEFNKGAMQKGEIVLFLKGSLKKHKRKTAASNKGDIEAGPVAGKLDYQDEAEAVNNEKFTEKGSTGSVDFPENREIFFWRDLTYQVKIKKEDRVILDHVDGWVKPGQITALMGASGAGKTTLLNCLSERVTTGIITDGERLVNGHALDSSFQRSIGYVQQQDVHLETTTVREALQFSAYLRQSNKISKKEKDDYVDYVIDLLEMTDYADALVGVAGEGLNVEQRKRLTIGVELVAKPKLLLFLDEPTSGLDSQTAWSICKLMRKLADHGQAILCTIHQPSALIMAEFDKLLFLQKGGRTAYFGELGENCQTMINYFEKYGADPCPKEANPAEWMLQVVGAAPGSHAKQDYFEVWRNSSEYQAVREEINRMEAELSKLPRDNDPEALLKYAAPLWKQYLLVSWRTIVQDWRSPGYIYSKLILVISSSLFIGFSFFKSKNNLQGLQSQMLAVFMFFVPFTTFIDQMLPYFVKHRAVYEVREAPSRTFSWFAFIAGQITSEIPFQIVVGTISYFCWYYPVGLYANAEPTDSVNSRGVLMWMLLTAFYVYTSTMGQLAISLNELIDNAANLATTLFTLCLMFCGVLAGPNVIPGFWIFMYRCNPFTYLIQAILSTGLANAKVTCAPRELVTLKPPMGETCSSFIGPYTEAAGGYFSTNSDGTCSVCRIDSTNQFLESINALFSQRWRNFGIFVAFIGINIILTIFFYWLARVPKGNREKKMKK
Sequence of Multidrug resistance protein CDR1 (P43071 whole entry, looked up): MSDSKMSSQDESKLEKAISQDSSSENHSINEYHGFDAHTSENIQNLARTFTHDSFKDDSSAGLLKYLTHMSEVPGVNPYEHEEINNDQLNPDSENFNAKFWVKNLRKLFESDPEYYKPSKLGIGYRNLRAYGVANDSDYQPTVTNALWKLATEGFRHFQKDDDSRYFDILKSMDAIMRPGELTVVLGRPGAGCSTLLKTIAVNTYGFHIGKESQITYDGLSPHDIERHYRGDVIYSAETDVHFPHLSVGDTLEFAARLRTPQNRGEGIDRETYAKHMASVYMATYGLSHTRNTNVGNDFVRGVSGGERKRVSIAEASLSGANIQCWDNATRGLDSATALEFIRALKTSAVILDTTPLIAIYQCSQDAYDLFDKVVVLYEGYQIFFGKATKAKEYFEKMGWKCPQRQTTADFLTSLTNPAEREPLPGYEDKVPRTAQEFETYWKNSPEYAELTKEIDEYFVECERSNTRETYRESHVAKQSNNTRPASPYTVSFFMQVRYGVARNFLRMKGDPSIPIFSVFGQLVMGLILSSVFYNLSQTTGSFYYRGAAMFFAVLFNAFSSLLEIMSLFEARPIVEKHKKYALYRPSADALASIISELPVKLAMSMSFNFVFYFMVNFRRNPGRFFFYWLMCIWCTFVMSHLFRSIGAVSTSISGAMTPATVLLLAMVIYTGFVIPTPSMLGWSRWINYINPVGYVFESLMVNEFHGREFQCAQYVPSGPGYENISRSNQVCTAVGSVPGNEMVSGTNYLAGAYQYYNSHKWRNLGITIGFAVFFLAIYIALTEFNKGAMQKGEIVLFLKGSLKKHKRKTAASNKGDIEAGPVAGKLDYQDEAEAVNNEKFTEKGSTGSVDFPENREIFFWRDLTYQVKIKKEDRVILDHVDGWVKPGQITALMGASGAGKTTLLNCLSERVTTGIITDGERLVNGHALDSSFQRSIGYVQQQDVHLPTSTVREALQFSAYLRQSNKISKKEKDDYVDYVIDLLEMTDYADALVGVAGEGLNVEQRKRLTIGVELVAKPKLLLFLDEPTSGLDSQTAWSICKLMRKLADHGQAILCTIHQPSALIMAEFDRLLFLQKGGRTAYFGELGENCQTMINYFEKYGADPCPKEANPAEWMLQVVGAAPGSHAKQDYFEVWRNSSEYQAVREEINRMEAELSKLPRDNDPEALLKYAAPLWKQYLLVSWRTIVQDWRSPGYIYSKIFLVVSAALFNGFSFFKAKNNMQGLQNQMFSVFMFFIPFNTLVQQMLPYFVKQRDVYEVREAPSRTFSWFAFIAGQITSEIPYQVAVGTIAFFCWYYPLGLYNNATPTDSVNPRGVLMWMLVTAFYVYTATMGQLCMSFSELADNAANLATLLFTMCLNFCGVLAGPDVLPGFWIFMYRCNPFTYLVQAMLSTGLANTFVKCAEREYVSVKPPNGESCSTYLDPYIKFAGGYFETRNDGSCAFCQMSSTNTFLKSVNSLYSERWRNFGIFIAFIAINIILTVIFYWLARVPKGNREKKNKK

CCc1ccc(NC2=NC(=O)/C(=C/c3cc(OC)c(O)c(OC)c3)S2)cc1
EC50 [1]: 2.67 µM (active) | EC50 [2]: 6.05 µM (active) | EC50 (Streptokinase A): > 150 µM (not active) | EC50 [3]: 10.5 µM (active) | EC50 [4]: 19.2 µM (active) | CC50 [5]: > 40 µM (active) | EC50 (Streptococcus): 28.2 µM (active)

Cc1nn2c(N3CCN(CCO)CC3)c3c(nc2c1-c1ccccc1)CCCC3
IC50 [6]: 6.95 µM (active) | IC50 [7]: 4.74 µM (active)
